Assay results taken from patent publication US7977349B2, “Substituted quinolones III” (Aicuris GmbH & Co. KG, priority 2006, dated 2011).
Structures can show the parent of a compound that is named as a salt.

Key:
HCMV = experiment: Anti-HCMV (anti-human cytomegalovirus) cytopathogenicity test; assay type: cell-based; settings: concentration inhibiting the CPE by 50% vs untreated virus control, HCMV-infected NHDF cells, 6 days, visual assessment
Procedure: Anti-HCMV (Anti-Human Cytomegalovirus) Cytopathogenicity Tests The test compounds are employed as 50 millimolar (mM) solutions in dimethyl sulfoxide (DMSO). Ganciclovir®, Foscarnet® and Cidofovir® are used as reference compounds. After the addition of 2 μl of the 50, 5, 0.5 and 0.05 mM DMSO stock solutions respectively to 98 μl portions of cell culture medium in row […] for duplicate determinations, 1:2 dilutions are carried out with 50 μl portions of medium up to row 11 of the 96-well plate. The wells in rows 1 and 12 each contain 50 μl of medium. 150 μl of a suspension of 1×10^4 cells (human prepuce fibroblasts [NHDF]) are then pipetted into each of the wells (row 1=cell control) and, in rows 2-12, a mixture of HCMV-infected and uninfected NHDF cells (M.O.I.=0.001-0.002), i.e. 1-2 infected cells per 1000 uninfected cells. Row 12 (without substance) serves as virus control. The final test concentrations are 250-0.0005 μM. The plates are incubated at 37° C./5% CO2 for 6 days, i.e. until all the cells in the virus controls are infected (100% cytopathogenic effect [CPE]). The wells are then fixed and stained by adding a mixture of formalin and Giemsa's dye (30 minutes), washed with double-distilled water and dried in a drying oven at 50° C. The plates are then assessed visually using an overhead microscope (plaque multiplier from Technomara). The following data can be obtained from the test plates: EC50 (HCMV)=substance concentration in μM which inhibits the CPE (cytopathic effect) by 50% compared with the untreated virus control;

[1] = Cytostatic effects on NHDF cells in the anti-HCMV cytopathogenicity test; assay type: cell-based, human; settings: human, concentration at which no visible cytostatic effects on NHDF cells are evident vs untreated cell control
Procedure: (§1) Anti-HCMV (Anti-Human Cytomegalovirus) Cytopathogenicity Tests The test compounds are employed as 50 millimolar (mM) solutions in dimethyl sulfoxide (DMSO). Ganciclovir®, Foscarnet® and Cidofovir® are used as reference compounds. After the addition of 2 μl of the 50, 5, 0.5 and 0.05 mM DMSO stock solutions respectively to 98 μl portions of cell culture medium in row […] for duplicate determinations, 1:2 dilutions are carried out with 50 μl portions of medium up to row 11 of the 96-well plate. The wells in rows 1 and 12 each contain 50 μl of medium. 150 μl of a suspension of 1×10^4 cells (human prepuce fibroblasts [NHDF]) are then pipetted into each of the wells (row 1=cell control) and, in rows 2-12, a mixture of HCMV-infected and uninfected NHDF cells (M.O.I.=0.001-0.002), i.e. 1-2 infected cells per 1000 uninfected cells. Row 12 (without substance) serves as virus control. The final test concentrations are 250-0.0005 μM. The plates are incubated at 37° C./5% CO2 for 6 days, i.e. until all the cells in the virus controls are infected (100% cytopathogenic effect [CPE]). The wells are then fixed and stained by adding a mixture of formalin and Giemsa's dye (30 minutes), washed with double-distilled water and dried in a drying oven at 50° C. The plates are then assessed visually using an overhead microscope (plaque multiplier from Technomara). The following data can be obtained from the test plates: CC50 (NHDF)=substance concentration in μM at which no visible cytostatic effects on the cells are evident compared with the untreated cell control;

[2] = test system: NHDF (human prepuce fibroblasts); experiment: as above; assay type: cell-based; settings: concentration at which no visible cytostatic effects on NHDF cells are evident vs untreated cell control; 6 days
Procedure: as §1

[3] = Human betaherpesvirus 5, NHDF, 144 h

| SMILES | EC50 (HCMV; [3]) [µM] | CC50 at 6 days [1] [µM] | EC50 (HCMV) [µM] | CC50 [2] [µM] |
| --- | --- | --- | --- | --- |
| COc1c(N2CCC(C(=O)O)CC2)c(F)cc2c(=O)c(C(=O)NCc3ccc(Cl)cc3C)cn(CC(F)(F)F)c12 [Example 58] | 0.006 | 47 | – | – |
| COc1c(N2CCC(C(=O)O)CC2)c(F)cc2c(=O)c(C(=O)NCc3ccc(OC(F)(F)F)cc3C)cn(C3CCC3)c12 [Example 61] | 0.007 | 21 | – | – |
| COc1c(N2CCC(C(=O)O)CC2)c(F)cc2c(=O)c(C(=O)NCc3ccc(OC(F)(F)F)cc3C)cn(CC(F)F)c12 [Example 62] | 0.001 | 148 | – | – |
| COc1c(N2CCC(C(=O)O)CC2)c(F)cc2c(=O)c(C(=O)NCc3ccc(OC(F)(F)F)cc3C)cn([C@@H]3C[C@@H]3F)c12 [Example 63] | 0.008 | 47 | – | – |
| COc1c(N2CCC(C(=O)O)CC2)c(F)cc2c(=O)c(C(=O)NCc3ccc(OC(F)(F)F)cc3C)cn(C(C)CF)c12 (stereo not shown) [Example 65] | 0.079 | 106 | – | – |
| COc1c(N2CCC(CC(=O)O)CC2)c(F)cc2c(=O)c(C(=O)NCc3ccc(Cl)cc3C)cn(C3CC3)c12 [Example 67] | 0.061 | 21 | – | – |
| COc1c(N2CCC[C@H](CC(=O)O)C2)c(F)cc2c(=O)c(C(=O)NCc3ccc(OC(F)(F)F)cc3C)cn(CC(F)(F)F)c12 [Example 73, {(3R)-1-[6-Fluoro-8-methoxy-3-({[2-methyl-4-(trifluoromethoxy)benzyl]amino}carbonyl)-4-oxo-1-(2,2,2-trifluoroethyl)-1,4-dihydroquinolin-7-yl]piperidin-3-yl}acetic acid] | 0.003 | 47 | – | – |
| COc1c(N2CCC(C(=O)O)CC2)c(F)cc2c(=O)c(C(=O)NCc3ccc(OC(F)(F)F)cc3C)cn(CC(F)(F)F)c12 [Example 75, 1-[6-Fluoro-8-methoxy-3-({[2-methyl-4-(trifluoromethoxy)benzyl]amino}carbonyl)-4-oxo-1-(2,2,2-trifluoroethyl)-1,4-dihydroquinolin-7-yl]piperidine-4-carboxylic acid diethanolamine salt] | – | – | 0.002 | 47 |
| COc1c(N2CCC(C(=O)O)CC2)c(F)cc2c(=O)c(C(=O)NCc3ccc(OC(F)(F)F)cc3C)cn(CC(F)(F)F)c12 [Example 76, 1-[6-Fluoro-8-methoxy-3-({[2-methyl-4-(trifluoromethoxy)benzyl]amino}carbonyl)-4-oxo-1-(2,2,2-trifluoroethyl)-1,4-dihydroquinolin-7-yl]piperidine-4-carboxylic acid choline salt] | – | – | 0.002 | 47 |
| Cc1cc(OC(F)(F)F)ccc1CNC(=O)c1cn(CC(F)(F)F)c2c(O)c(N3CCC(C(=O)O)CC3)c(F)cc2c1=O [Example 77, 1-[6-Fluoro-8-hydroxy-3-({[2-methyl-4-(trifluoromethoxy)benzyl]amino}carbonyl)-4-oxo-1-(2,2,2-trifluoroethyl)-1,4-dihydroquinolin-7-yl]piperidine-4-carboxylic acid] | 0.006 | 250 | – | – |
| CCOc1c(N2CCC(C(=O)O)CC2)c(F)cc2c(=O)c(C(=O)NCc3ccc(OC(F)(F)F)cc3C)cn(CC(F)(F)F)c12 [Example 79, 1-[8-Ethoxy-6-fluoro-3-({[2-methyl-4-(trifluoromethoxy)benzyl]amino}carbonyl)-4-oxo-1-(2,2,2-trifluoroethyl)-1,4-dihydroquinolin-7-yl]piperidine-4-carboxylic acid] | 0.002 | 125 | – | – |
